Results from patent US8519154B2, “Method for treatment of bronchial asthma” (Council of Scientific & Industrial Research, priority 2011, dated 2013).

Tests used:
[1] = test system: PDE-4; assay: Phosphodiesterase 4 assay, [3H]cAMP SPA enzyme assay, enzyme preparation from rat heart; assay type: biochemical
Experimental: For phosphodiesterase (PDE-4) assay, enzyme preparations were performed from rat heart (Ko et al 2004, Biochemical Pharmacology 68:2087-2094). Heart was excised from anesthetized rat and transfer into normal saline solution. Heart weighing 687 mg was taken and homogenized in 2.5 volumes of homogenization buffer containing 20 mM Tris-Cl, 50 mM NaCl, 2 mM EDTA, 0.1 mM PMSF, […], protease inhibitors 1 μg/μl. The homogenate was centrifuged at 500×g for 5 minute at 4° C. Then sup was taken for further centrifuged at 40,000×g for 30 minute (ultra centrifugation). After centrifugation supernatant was collected for phosphodiesterase assay. Protein concentration was estimated and for each assay, 2.5 μg protein (PDE enzyme preparation) was used. All compounds tested for PDE 4 activity were dissolved in DMSO.
Phosphodiesterase 4 assay: Phosphodiesterase 4 assay was conducted with [^3H] cAMP SPA enzyme assay (GE Amersham, UK) using 2.5 μg enzyme preparation for each well. Into each well 60 μl water, 10 μl assay buffer supplied with the kit, 10 μl compound (inhibitor), 10 μl PDE enzyme or homogenizing buffer (blank) and […] radiolabel led cAMP ([^3H]cAMP, GE Amersham, UK) were added. To check activity of the enzyme without inhibitor (compound) 10 μl DMSO was added in place of inhibitor to a separate well. The reaction mixtures were incubated for […] at 30° C. The reaction was stopped by adding 50 μl SPA bead supplied with the kit. It was then mixed well and allowed to stand at room temperature for 20 min. Breakdown of cAMP in each tube was monitored by β counter. The reading in each tube was obtained in counts per minute (CPM). The reading of the blank tube (without enzyme) was subtracted from each tube to normalize the counts. The enzyme activity was calculated by considering the CPM reading without any inhibitor (compound) as 100.

[2] = test system: BALB/c mice sensitized and challenged with ovalbumin (OVA); assay: Airway responsiveness to methacholine in mouse model of asthma; assay type: in vivo
Experimental: Present invention describes the efficacy of compound I in vivo mouse model of asthma. BALB/c mice were sensitized and challenged with ovalbumin (OVA) as shown in scheme 2 to develop asthmatic features such as airway hyperreactivity (AHR) to methacholine (MCh).
Mice were sensitized with 0.2 ml PBS containing 50 μg ovalbumin (OVA) (Sigma, USA) and 4 mg aluminum hydroxide in saline intraperitonially (i.p.) on days 0, 7 and 14 as shown in scheme 2. Sham group mice were sensitized with only alum dissolved in PBS. From day 21 to 30, mice were exposed to aerosol of OVA (3%) inhalation 25 minutes daily in a Plexiglas chamber (20×20×10 cm^3). The aerosol was generated by a nebulizer (OMRON CX, model) with an airflow rate of 9 L/minute. Sham group mice were challenged with PBS alone. […]
Airway responsiveness was measured by barometric plethysmography using whole-body plethysmography (WBP; Buxco, Troy, N.Y.) 12 hours after last saline or ovalbumin challenge. […] Enhanced pause (Penh) to methacholine as measured using barometric plethysmography is a valid indicator of bronchoconstriction in mice and can be used to measure AHR. […] Readings were taken and averaged for 5 minutes from the starting time of nebulisation. Airway responsiveness to MCh was evaluated by the concentration of MCh required to increase the Pen H to twice the baseline value (MCh PC200).

[3] = Determination of pharmacokinetics in mice; assay type: in vivo, swiss mice
Experimental: Treatment of animal: Healthy swiss mice of both the sexes (25-30) were used. The animals were kept (3/cage) under controlled conditions (temp 26±2° C.; relative humidity 50±5%; 12 h light/dark cycle) and maintained on pelleted rodent diet […]. Ashirwad Industries Ltd. Chandigarh, India). Water was provided ad libitum. Compound I was solubilised in 2% gum acacia by trituration and diluted with normal saline to obtained desired concentration. The compound was administered orally (20 mg/kg BW) or via intravenous route (10 mg/kg bw).
Sampling time: Blood samples were collected at 0, 5, 15 and 30 min, and 1, 2, 4, 6, 8, 16 and 24 hrs post-administration after oral/iv route in pre-labeled heparinised tubes and centrifuged (3500 rpm×10 minutes) to obtain the plasma. A total of 6 animals were used per time point.
(i) Aliquots of plasma (250 ul) were mixed with ethyl acetate (3 ml), vortexed for two minutes (2500 rpm) and centrifuged at 5000 rpm for 10 min. The organic layer was collected and evaporated to dryness using solvent evaporator (Model: SPD 111V, Thermo Electron Corporation, MA). The dried samples were reconstituted in mobile phase for HPLC analysis.
(2) Calibration standards were prepared from aliquots of plasma collected from untreated animals which were spiked with molecule I (0.25 μg-10 μg/ml). […] The extraction efficiency of the molecule from plasma matrix was 90-93%.
HPLC determinations HPLC determinations were done on Thermofinningan chromatograph (Model: SpectraSystem SCM 1000 equipped with quaternary pump P-4000; autosampler AS 3000; UV 6000 LP): diode array detector). Molecule D8 was run under the following conditions:
Column: RP-8 (5 um); Mobile Phase: Acetonitrile:Water (51:49); Wavelength: 272 nm Flow Rate: 1 ml/min; Retention time: 8.035 min; The lower limit of detection (LOD): 3.5 ng/ml; limit of quantitation (LOQ): 10 ng/ml.
Bioavailability indices. A concentration-time curve for Molecule D8 was established and pharmacokinetic parameters (Cmax, Tmax, AUC0-24, Clerance (Cl) and Volume of Distribution (vd) were determined by using a software (PK Solutions version 2.0; Summit Research Services, USA).
Absolute bioavailability was determined using the following formula: AUCoral×doseiv/AUCv×Doseoral.

[4] = Solubility in water; assay type: physicochemical

SMILES: COc1cc(C=O)cc2c1[nH]c1ccccc12 [Compound I, 1-methoxy-3-formyl-9H carbazole]
- % of Inhibition ([1]; 0.1 μg/ml): 1.4%
- % of Inhibition ([1]; 1 μg/ml): 34.7%
- % of Inhibition ([1]; 10 μg/ml): 73.1%
- IC50 ([1]; compound of natural origin (extraction from plants)): 20 µM
- extent of inhibition of PDE 4 activity ([1]; compound of natural origin, compared with rolipram): comparable to known PDE 4 inhibitor, rolipram
- IC50 ([1]; synthetically prepared compound (chemical origin)): 0.05 µM
- MChPC200 (airway hyper-responsiveness) ([2]; 0.1, 1 and 10 mg/kg orally twice per day): significantly attenuated the decrease in MChPC200
- dose with maximum effect on MChPC200 ([2]; orally twice per day): 10 mg/kg
- amounts detected in urine ([3]; after 24 hrs): negligible amounts
- plasma clearance rate ([3]; mouse, in vivo): good plasma clearance rate
- volume of distribution ([3]; mouse, in vivo): volume of distribution is high
- intact drug stays in the circulation ([3]; oral administration): ≤ 12 h
- solubility in water [4]: insoluble in water
